From paper PMC12144822 (Parasites & Vectors, 2025)

Key:
Experiment in all cases: Two-electrode voltage-clamp concentration-activation by the natural agonist, receptor expressed in Xenopus oocytes
Assay type in all cases: cell-based
Set-up in all cases: The corresponding open reading frames (ORF) were cloned into the pT7-TS transcription vector; expressed in transfected cells; host or cells: Xenopus laevis oocytes, cRNA injection
Conditions in all cases: concentration-activation curve
[1] = biological target: Hsa-GABA α1β2γ2 (Homo sapiens, UniProt P14867+P18507+P47870)
Sequence of Hsa-GABA α1β2γ2 (P14867 28-456): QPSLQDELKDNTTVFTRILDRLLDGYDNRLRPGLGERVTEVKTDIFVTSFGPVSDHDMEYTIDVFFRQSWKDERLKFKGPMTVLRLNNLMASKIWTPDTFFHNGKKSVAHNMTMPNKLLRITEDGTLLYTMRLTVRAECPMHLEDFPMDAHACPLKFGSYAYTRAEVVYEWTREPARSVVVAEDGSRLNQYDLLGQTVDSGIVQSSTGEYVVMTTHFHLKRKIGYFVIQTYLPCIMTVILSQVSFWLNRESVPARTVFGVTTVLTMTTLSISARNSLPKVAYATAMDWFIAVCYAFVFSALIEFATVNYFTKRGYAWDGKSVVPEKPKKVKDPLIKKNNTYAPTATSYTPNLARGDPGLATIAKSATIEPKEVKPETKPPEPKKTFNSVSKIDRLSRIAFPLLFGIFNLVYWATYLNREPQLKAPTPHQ
Sequence of Hsa-GABA α1β2γ2 (P47870 26-474 isoform P47870-1 limits assumed): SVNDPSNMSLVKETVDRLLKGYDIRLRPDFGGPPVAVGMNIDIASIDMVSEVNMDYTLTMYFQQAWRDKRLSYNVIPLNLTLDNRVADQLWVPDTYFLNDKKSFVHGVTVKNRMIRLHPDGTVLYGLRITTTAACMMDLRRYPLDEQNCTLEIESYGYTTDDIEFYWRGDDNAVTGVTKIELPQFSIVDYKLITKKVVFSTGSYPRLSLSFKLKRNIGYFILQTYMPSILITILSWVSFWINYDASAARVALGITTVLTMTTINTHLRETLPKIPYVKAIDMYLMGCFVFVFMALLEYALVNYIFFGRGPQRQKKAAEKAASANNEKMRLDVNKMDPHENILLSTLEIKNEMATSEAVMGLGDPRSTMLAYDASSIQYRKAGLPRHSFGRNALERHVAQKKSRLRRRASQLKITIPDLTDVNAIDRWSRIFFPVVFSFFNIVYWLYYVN
Sequence of Hsa-GABA α1β2γ2 (P18507 40-467 isoform P18507-1 limits assumed): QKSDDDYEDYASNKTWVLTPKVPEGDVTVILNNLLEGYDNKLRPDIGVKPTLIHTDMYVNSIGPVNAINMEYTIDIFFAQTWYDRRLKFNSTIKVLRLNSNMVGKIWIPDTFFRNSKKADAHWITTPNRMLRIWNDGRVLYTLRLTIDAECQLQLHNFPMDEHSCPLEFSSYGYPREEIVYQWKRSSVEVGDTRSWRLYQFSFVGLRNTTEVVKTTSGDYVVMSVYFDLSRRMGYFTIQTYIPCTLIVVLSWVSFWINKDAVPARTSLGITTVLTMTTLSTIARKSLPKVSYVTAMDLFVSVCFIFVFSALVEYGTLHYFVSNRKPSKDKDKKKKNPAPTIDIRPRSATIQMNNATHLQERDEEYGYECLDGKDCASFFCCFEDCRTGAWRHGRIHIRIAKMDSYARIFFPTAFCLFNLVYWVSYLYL
From the text: (§1) Complementary DNA (cDNA) encoding for the human GABAA proteins α1 (NM_001127645.2), α2 (NM_001377146.1), α3 (KJ620007.1), α4 (NM_000809.4), α5 (NM_000810.4), α6 (NM_000811.3), β2 (XM_054352312.1), β3 (M82919.1), γ2 (NM_000816.3) and δ (NM_000815.5) were ordered from Genewiz (www.genewiz.com; Leipzig, Germany); for each gene, GenBank accession numbers are provided in parentheses. When necessary, silent mutations were introduced to break NheI or XhoI internal restriction sites. The corresponding open reading frames (ORF) were cloned into the pT7-TS transcription vector (introducing X. laevis β-globin untranslated cDNA to the 5’ and 3’ ends of the gene), following a procedure described in detail in a previous publication. The same process was used to obtain cDNA encoding canine GABAA proteins α4 (XM_025435560.1), α6 (XM_022417729.1) and δ (XM_005620414.2). Gene α2 (XM_025435664.1), α3 (XM_549343.5), α5 (XM_545805.6) and β3 (XM_025437408.1) were obtained by PCR; GenBank reference accession numbers are provided in parentheses. RNA extraction, cDNA synthesis and PCR amplification were performed as described previously. Total RNA was extracted from a piece of dog brain (Beagle breed; Canis lupus familiaris) from which 1 µg of total RNA (DNase-treated) was reverse-transcribed to cDNA using a (dT)30 primer and SuperScript III Reverse Transcriptase (Invitrogen, Thermo Fisher Scientific, Waltham, MA, USA). Gene-specific primers (Additional file 1: Table S1) were designed using Primer 3 software (http://frodo.wi.mit.edu/). […] The cycling conditions were: 98 °C for 30 s; then 38 cycles of 98 °C for 10 s, 58 °C for 30 s and 72 °C for 90 s; followed by 72 °C for 5 min. The dog subunits α1 (XM_546261.5), β2 (XM_014113040.1) and γ2 (XM_546259.5) had been previously amplified and described in a study by Rufener et al..
(§2) Defoliculated X. laevis oocytes ordered from Ecocyte Bioscience (Dortmund, Germany) were microinjected with 15–25 nl of cRNA solution (5–50 ng/μl) per oocyte using an automated injector (Roboinject; Multi Channel Systems MCS GmbH, Reutlingen, Germany) and then incubated at 18 °C. All recordings were made 1–5 days post-cRNA injection and were performed at 18 ± 4 °C. Cells were superfused with OR2 medium (NaCl 88 mM, KCl 2.5 mM, HEPES 5 mM, CaCl2•2H2O 1.8 mM, MgCl2•7H2O 1.0 mM, pH 7.4). To ensure that γ2 subunits were integrated into the heteropentamers, we injected fivefold more γ2 than the other subunit cRNAs. Diazepam is a positive allosteric modulator of GABAR only if γ2 subunits are present. Therefore, we used this method to confirm the presence of human and dog GABAA receptor containing the γ2 subunit.
(§3) Voltage-clamp measurements were performed as described by Rufener et al.. Oocytes were impaled with two electrodes filled with 3 M KCl, and their membrane potentials were maintained at − 80 mV throughout the experiment. […] Recordings were performed using an automated process equipped with standard two-electrode voltage-clamp configuration (HiClamp system; Multi Channel Systems MCS GmbH). Data were filtered at 10 Hz, captured at 100 Hz and analyzed using proprietary data acquisition and analysis software in MATLAB (Mathworks Inc., Natick, MA, USA). Additional analyses were performed using Excel (Microsoft, Redmond, WA, USA). […] Graphing the maximum inward currents against the log of agonist concentration produces typical concentration-activation and concentration-inhibition curves, which can be accurately described using individual Hill equations.

[2] = biological target: Hsa-GABA α2β2γ2 (Homo sapiens, UniProt P18507+P47869+P47870)
Sequence of Hsa-GABA α2β2γ2 (P47869 29-451): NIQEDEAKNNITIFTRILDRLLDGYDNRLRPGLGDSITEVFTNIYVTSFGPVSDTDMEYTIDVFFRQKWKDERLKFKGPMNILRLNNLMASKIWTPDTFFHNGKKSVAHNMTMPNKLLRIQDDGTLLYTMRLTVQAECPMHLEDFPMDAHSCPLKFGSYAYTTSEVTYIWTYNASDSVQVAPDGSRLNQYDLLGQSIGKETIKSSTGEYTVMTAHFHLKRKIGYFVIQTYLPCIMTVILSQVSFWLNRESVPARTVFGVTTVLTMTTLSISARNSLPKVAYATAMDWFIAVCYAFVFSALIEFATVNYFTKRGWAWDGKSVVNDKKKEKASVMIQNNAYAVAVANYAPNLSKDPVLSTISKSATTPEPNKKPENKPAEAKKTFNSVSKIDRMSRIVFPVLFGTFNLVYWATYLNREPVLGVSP
Sequence of Hsa-GABA α2β2γ2 (P47870 26-474 isoform P47870-1 limits assumed): as the sequence (P47870 26-474 isoform P47870-1 limits assumed) above
Sequence of Hsa-GABA α2β2γ2 (P18507 40-467 isoform P18507-1 limits assumed): as the sequence (P18507 40-467 isoform P18507-1 limits assumed) above
From the text: as §1, §2, §3

[3] = biological target: Hsa-GABA α2β3γ2 (Homo sapiens, UniProt P18507+P28472+P47869)
Sequence of Hsa-GABA α2β3γ2 (P47869 29-451): as the sequence (P47869 29-451) above
Sequence of Hsa-GABA α2β3γ2 (P28472 26-473): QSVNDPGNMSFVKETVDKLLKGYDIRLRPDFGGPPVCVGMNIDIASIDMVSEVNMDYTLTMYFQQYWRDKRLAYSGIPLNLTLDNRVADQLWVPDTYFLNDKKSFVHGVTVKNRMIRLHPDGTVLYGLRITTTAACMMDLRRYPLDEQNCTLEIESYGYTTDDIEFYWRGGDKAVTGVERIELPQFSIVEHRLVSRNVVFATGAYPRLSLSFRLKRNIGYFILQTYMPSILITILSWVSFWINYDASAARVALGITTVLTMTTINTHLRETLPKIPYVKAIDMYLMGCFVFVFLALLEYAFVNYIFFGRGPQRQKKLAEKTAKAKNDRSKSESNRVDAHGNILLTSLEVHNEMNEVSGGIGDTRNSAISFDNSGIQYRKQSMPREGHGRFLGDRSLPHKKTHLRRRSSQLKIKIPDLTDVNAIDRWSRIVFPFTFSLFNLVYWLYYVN
Sequence of Hsa-GABA α2β3γ2 (P18507 40-467 isoform P18507-1 limits assumed): as the sequence (P18507 40-467 isoform P18507-1 limits assumed) above
From the text: as §1, §2, §3

[4] = biological target: Hsa-GABA α3β2γ2 (Homo sapiens, UniProt P18507+P34903+P47870)
Sequence of Hsa-GABA α3β2γ2 (P34903 29-492): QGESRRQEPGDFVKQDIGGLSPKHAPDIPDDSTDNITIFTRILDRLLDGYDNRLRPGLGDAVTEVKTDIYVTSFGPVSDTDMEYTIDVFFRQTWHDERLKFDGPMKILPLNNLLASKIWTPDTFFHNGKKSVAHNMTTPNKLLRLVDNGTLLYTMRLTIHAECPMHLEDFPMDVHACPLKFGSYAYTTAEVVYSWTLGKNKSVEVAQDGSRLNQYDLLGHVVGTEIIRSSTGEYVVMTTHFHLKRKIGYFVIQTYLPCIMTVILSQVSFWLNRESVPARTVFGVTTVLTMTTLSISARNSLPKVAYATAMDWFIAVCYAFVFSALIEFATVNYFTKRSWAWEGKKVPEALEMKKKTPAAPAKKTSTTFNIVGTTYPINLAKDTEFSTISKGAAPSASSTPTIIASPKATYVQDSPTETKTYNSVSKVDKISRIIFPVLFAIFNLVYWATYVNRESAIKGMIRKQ
Sequence of Hsa-GABA α3β2γ2 (P47870 26-474 isoform P47870-1 limits assumed): as the sequence (P47870 26-474 isoform P47870-1 limits assumed) above
Sequence of Hsa-GABA α3β2γ2 (P18507 40-467 isoform P18507-1 limits assumed): as the sequence (P18507 40-467 isoform P18507-1 limits assumed) above
From the text: as §1, §2, §3

[5] = biological target: Hsa-GABA α5β2γ2 (Homo sapiens, UniProt P18507+P31644+P47870)
Sequence of Hsa-GABA α5β2γ2 (P31644 32-462): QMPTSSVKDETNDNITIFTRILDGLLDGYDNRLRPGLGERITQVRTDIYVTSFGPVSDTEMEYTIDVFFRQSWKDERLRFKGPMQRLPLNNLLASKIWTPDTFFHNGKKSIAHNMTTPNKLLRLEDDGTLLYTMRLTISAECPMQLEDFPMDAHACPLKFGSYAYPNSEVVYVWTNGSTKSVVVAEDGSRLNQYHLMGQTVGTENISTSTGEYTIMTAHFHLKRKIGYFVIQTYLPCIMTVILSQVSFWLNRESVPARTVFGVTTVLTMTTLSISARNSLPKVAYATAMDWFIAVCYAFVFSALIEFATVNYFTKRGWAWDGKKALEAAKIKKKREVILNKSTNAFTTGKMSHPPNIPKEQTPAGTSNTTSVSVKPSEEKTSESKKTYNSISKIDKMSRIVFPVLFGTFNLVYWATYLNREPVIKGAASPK
Sequence of Hsa-GABA α5β2γ2 (P47870 26-474 isoform P47870-1 limits assumed): as the sequence (P47870 26-474 isoform P47870-1 limits assumed) above
Sequence of Hsa-GABA α5β2γ2 (P18507 40-467 isoform P18507-1 limits assumed): as the sequence (P18507 40-467 isoform P18507-1 limits assumed) above
From the text: as §1, §2, §3

[6] = biological target: Hsa-GABA α6β2γ2 (Homo sapiens, UniProt P18507+P47870+Q16445)
Sequence of Hsa-GABA α6β2γ2 (Q16445 20-453): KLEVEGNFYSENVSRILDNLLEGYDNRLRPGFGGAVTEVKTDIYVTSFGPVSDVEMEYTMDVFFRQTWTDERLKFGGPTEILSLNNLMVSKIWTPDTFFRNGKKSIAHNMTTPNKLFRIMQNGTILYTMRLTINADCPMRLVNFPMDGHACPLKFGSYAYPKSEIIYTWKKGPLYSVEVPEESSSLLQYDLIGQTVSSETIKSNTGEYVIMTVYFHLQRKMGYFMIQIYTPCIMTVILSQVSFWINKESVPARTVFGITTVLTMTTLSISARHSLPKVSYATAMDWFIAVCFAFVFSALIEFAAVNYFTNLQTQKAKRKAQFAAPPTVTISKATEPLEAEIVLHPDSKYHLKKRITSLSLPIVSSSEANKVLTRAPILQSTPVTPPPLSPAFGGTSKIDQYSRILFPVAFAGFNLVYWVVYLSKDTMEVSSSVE
Sequence of Hsa-GABA α6β2γ2 (P47870 26-474 isoform P47870-1 limits assumed): as the sequence (P47870 26-474 isoform P47870-1 limits assumed) above
Sequence of Hsa-GABA α6β2γ2 (P18507 40-467 isoform P18507-1 limits assumed): as the sequence (P18507 40-467 isoform P18507-1 limits assumed) above
From the text: as §1, §2, §3

NCCCC(=O)O [GABA, gamma-aminobutyric acid]
nH (Hill coefficient) [1]: 1.7
nH (Hill coefficient) [2]: 1.4
nH (Hill coefficient) [3]: 1.2
nH (Hill coefficient) [4]: 1.2
nH (Hill coefficient) [5]: 1.1
nH (Hill coefficient) [6]: 1.1
